In patent US11208412B2 (DAEGU-GYEONGBUK MEDICAL INNOVATION FOUNDATION, priority 2017, dated 2021):
Where two headings read alike, the source gives them in different places.

What was measured:
Assay in all cases: Kinase selectivity, DiscoverX scanMAX Kinase assay panel (% control)
Format in all cases: binding
[1] = target: T1, kinases of the scanMAX Kinase assay panel (Homo sapiens, UniProt P27361); settings: ERK1; 1 uM
T1 construct: purchased DiscoverX Co. (contract measurement) scanMAX Kinase assay panel
Outline: (§1)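 A 1 uM DMSO solution of compound was applied across the panel kinases, and results were expressed as % control relative to DMSO (100%) and a positive control (0%).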

[2] = target: T2, kinases of the scanMAX Kinase assay panel (Homo sapiens, UniProt Q14004); settings: CDC2L5; 1 uM
T2 construct: purchased DiscoverX Co. (contract measurement) scanMAX Kinase assay panel
Outline: as §1

[3] = target: T3, kinases of the scanMAX Kinase assay panel (Homo sapiens, UniProt Q7L7X3); settings: kinase TAOK1; 1 uM in DMSO
T3 construct: purchased DiscoverX Co. (contract measurement) scanMAX Kinase assay panel
T3 sequence (Q7L7X3 1-1001): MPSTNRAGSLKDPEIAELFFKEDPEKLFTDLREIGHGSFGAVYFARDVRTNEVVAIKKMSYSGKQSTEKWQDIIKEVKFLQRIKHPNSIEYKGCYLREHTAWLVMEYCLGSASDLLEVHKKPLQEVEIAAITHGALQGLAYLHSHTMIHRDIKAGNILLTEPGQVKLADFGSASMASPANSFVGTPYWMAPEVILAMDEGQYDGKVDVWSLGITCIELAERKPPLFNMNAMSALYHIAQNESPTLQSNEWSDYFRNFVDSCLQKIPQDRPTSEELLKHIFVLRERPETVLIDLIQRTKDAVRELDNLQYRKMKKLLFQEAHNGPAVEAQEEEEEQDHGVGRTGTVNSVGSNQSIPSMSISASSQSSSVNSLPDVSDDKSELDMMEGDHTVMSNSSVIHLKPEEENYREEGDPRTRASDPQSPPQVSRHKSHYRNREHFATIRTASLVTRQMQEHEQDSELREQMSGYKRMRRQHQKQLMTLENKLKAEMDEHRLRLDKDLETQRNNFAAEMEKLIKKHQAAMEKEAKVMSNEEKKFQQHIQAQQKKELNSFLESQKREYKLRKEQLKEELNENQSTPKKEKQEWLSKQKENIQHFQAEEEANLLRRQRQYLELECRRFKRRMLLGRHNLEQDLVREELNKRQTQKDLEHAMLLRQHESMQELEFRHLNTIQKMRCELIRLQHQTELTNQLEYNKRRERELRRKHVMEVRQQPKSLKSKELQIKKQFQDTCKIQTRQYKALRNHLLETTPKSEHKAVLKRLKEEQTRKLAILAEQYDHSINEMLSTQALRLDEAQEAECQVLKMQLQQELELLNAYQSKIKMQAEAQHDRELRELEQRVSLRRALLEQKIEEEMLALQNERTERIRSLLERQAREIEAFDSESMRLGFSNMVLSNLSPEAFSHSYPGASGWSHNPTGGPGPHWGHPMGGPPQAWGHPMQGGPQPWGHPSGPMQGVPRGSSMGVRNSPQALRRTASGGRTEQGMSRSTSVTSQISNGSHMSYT
Outline: as §1

[4] = target: T4, kinases of the scanMAX Kinase assay panel (Homo sapiens, UniProt Q9BYP7); settings: kinase WNK3; 1 uM in DMSO
T4 construct: purchased DiscoverX Co. (contract measurement) scanMAX Kinase assay panel
T4 sequence (Q9BYP7 whole entry): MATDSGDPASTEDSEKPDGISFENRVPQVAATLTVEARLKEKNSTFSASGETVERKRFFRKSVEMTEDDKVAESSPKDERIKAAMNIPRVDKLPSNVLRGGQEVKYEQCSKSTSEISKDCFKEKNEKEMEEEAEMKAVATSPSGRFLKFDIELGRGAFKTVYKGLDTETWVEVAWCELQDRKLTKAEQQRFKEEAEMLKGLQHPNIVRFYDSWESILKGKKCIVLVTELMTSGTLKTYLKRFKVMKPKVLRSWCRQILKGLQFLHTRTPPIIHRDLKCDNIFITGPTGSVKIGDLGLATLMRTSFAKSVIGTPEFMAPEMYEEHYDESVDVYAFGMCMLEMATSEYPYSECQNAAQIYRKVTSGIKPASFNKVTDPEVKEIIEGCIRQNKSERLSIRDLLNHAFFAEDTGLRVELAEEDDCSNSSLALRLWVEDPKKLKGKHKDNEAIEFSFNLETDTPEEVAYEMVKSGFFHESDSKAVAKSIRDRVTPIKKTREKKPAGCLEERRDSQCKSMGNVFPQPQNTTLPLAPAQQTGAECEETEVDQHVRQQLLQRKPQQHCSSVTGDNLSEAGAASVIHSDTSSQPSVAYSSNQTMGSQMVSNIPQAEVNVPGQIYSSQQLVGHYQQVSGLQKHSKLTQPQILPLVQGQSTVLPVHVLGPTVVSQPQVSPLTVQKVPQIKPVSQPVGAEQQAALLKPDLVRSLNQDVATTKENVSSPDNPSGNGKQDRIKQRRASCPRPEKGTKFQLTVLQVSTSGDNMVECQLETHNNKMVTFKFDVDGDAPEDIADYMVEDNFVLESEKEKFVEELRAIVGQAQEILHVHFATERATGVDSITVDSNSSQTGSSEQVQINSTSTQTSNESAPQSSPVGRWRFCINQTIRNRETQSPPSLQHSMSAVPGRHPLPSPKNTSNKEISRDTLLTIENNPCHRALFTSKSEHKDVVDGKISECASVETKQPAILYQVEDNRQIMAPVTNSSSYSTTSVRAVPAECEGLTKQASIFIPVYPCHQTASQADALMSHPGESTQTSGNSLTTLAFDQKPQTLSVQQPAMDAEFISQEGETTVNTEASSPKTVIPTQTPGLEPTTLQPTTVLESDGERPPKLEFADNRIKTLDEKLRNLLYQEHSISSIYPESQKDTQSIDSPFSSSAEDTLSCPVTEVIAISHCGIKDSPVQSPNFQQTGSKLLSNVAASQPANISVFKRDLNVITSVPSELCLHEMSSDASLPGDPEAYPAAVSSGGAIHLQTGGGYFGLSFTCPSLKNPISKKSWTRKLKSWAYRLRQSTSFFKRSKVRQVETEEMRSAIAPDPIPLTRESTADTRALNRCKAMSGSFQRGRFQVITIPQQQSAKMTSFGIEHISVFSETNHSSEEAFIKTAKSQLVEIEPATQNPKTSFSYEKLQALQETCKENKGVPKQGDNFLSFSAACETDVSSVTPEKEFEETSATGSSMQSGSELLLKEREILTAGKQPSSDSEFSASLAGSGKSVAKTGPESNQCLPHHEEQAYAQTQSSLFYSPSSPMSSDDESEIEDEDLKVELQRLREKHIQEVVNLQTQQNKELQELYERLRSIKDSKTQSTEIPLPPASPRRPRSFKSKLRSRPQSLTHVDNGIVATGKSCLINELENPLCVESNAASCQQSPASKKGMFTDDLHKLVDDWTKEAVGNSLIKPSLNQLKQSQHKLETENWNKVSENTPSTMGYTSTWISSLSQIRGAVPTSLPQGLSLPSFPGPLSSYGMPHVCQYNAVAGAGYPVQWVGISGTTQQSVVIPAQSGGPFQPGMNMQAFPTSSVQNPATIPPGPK
Outline: as §1

[5] = target: T5, kinases of the scanMAX Kinase assay panel (Homo sapiens, UniProt Q06187); settings: BTK; 1 uM
T5 construct: purchased DiscoverX Co. (contract measurement) scanMAX Kinase assay panel
T5 sequence (Q06187 whole entry): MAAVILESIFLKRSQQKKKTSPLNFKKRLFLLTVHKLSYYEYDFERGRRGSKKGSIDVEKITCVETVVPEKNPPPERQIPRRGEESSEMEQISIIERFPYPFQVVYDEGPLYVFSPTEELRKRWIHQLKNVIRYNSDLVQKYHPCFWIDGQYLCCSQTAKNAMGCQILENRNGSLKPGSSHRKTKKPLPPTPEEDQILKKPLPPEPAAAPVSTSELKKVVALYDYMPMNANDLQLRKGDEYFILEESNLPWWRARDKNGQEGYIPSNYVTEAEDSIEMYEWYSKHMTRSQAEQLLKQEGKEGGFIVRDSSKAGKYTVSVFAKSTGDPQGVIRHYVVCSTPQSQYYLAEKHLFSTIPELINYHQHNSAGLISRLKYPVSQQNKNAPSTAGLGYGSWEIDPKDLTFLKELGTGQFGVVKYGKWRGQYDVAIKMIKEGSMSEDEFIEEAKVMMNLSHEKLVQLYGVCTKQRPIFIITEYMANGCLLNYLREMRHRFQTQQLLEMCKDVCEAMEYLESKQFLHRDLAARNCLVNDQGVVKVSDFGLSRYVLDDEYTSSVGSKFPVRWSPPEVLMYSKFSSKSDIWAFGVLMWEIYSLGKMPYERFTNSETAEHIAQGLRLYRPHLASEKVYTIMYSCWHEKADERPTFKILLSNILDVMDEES
Outline: as §1

[6] = target: T6, kinases of the scanMAX Kinase assay panel (Homo sapiens, UniProt Q8N5S9); settings: CAMKK1; 1 uM
T6 construct: purchased DiscoverX Co. (contract measurement) scanMAX Kinase assay panel
Outline: as §1

[7] = target: T7, kinases of the scanMAX Kinase assay panel (Homo sapiens, UniProt O95747); settings: OSR1; 1 uM
T7 construct: purchased DiscoverX Co. (contract measurement) scanMAX Kinase assay panel
T7 sequence (O95747 whole entry): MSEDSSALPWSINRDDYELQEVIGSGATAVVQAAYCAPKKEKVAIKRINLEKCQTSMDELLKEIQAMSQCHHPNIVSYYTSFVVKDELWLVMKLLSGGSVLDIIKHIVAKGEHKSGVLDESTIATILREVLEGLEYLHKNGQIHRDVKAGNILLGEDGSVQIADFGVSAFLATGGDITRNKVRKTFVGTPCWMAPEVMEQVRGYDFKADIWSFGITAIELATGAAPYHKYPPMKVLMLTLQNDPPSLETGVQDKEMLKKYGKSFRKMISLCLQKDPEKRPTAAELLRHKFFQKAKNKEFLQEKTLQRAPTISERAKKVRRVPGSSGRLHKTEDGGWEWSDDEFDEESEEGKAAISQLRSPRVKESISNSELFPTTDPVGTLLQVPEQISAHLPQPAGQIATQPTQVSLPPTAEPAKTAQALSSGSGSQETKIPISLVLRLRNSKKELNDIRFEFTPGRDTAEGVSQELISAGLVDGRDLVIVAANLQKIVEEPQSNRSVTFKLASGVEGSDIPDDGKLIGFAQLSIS
Outline: as §1

[8] = target: T8, kinases of the scanMAX Kinase assay panel (Homo sapiens, UniProt P29597); settings: 1 uM in DMSO
T8 construct: purchased DiscoverX Co. (contract measurement) scanMAX Kinase assay panel
T8 sequence (P29597 whole entry): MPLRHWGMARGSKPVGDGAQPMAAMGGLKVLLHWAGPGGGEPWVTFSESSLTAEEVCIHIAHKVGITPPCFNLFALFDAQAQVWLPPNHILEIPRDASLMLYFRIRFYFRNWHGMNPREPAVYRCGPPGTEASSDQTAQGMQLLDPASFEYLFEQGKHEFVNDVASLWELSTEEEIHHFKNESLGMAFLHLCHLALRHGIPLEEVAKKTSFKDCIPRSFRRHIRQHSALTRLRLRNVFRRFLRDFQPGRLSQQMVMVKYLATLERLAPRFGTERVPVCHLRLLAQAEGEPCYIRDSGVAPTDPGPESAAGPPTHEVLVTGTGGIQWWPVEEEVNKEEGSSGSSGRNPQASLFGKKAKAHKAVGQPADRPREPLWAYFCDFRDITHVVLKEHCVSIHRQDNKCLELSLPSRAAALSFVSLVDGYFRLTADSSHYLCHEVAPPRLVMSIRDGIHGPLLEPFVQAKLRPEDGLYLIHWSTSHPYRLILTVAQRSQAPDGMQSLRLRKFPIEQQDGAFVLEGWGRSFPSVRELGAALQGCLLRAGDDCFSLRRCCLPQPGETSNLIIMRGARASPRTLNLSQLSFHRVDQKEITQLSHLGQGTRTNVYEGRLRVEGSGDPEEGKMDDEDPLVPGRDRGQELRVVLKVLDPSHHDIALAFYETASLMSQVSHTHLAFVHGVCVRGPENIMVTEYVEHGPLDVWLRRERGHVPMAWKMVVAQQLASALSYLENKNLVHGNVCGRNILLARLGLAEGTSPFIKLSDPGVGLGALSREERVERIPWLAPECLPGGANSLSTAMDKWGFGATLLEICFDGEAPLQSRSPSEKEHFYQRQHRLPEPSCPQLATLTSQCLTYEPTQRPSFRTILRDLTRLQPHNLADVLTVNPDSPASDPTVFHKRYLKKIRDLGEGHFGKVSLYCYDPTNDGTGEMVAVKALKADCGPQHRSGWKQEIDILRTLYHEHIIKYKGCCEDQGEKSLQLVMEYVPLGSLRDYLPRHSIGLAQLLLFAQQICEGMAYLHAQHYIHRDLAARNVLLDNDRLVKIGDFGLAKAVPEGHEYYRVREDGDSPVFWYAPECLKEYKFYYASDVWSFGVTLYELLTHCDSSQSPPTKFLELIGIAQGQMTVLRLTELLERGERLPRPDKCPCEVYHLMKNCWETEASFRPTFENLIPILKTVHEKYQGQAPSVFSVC
Outline: as §1

[9] = target: T9, kinases of the scanMAX Kinase assay panel (Homo sapiens, UniProt O75716); settings: kinase STK16; 1 uM in DMSO
T9 construct: purchased DiscoverX Co. (contract measurement) scanMAX Kinase assay panel
T9 sequence (O75716 whole entry): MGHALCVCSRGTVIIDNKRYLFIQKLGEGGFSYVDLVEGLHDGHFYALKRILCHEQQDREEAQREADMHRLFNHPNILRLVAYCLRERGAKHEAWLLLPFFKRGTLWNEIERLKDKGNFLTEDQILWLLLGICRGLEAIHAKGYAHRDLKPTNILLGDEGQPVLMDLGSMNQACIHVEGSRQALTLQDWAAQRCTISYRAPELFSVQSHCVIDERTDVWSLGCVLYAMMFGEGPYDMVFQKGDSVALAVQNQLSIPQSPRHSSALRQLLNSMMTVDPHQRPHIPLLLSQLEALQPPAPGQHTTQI
Outline: as §1

[10] = target: T10, kinases of the scanMAX Kinase assay panel (Homo sapiens, UniProt O96017); settings: CHEK2; 1 uM
T10 construct: purchased DiscoverX Co. (contract measurement) scanMAX Kinase assay panel
Outline: as §1

[11] = target: T11, kinases of the scanMAX Kinase assay panel (Homo sapiens, UniProt P42685); settings: FRK; 1 uM
T11 construct: purchased DiscoverX Co. (contract measurement) scanMAX Kinase assay panel
T11 sequence (P42685 whole entry): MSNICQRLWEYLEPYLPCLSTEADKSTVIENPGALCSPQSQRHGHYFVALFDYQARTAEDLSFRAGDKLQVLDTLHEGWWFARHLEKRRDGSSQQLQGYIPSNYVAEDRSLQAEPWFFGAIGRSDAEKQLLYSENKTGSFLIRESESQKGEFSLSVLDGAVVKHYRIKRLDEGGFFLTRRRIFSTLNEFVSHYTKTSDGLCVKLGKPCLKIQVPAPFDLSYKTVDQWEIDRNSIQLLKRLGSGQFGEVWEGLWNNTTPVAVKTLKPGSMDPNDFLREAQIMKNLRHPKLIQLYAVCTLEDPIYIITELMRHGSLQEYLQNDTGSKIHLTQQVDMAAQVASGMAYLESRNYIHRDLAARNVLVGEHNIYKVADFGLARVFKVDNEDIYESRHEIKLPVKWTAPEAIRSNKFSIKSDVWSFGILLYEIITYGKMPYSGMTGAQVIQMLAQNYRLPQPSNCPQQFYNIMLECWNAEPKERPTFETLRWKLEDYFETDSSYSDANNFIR
Outline: as §1

[12] = target: T12, kinases of the scanMAX Kinase assay panel (Homo sapiens, UniProt Q9Y2U5); settings: MAP3K2; 1 uM
T12 construct: purchased DiscoverX Co. (contract measurement) scanMAX Kinase assay panel
T12 sequence (Q9Y2U5 1-619): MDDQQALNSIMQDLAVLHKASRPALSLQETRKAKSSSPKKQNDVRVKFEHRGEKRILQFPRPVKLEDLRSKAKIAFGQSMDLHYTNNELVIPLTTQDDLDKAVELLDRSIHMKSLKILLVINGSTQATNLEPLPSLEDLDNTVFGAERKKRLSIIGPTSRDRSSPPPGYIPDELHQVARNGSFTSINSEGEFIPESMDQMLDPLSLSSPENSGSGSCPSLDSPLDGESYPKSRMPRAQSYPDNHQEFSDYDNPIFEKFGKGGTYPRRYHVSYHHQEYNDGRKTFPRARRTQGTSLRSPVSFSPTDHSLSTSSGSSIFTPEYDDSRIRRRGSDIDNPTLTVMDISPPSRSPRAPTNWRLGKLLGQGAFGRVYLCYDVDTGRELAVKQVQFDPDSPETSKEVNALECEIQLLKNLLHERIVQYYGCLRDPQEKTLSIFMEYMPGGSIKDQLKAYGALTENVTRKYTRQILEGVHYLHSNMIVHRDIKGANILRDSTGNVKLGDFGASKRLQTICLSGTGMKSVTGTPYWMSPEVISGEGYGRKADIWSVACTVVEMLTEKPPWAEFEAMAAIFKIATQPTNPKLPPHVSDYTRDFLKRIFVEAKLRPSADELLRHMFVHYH
Outline: as §1

[13] = target: T13, kinases of the scanMAX Kinase assay panel (Homo sapiens, UniProt Q16288); settings: kinase TRKC; 1 uM in DMSO
T13 construct: purchased DiscoverX Co. (contract measurement) scanMAX Kinase assay panel
Outline: as §1

[14] = kinase TYK2(JH1domain-catalytic), read-out: % control, TYK2(JH1domain-catalytic)
[15] = kinase TYK2(JH2domain-pseudokinase), read-out: % control, TYK2(JH2domain-pseudokinase)

SMILES | remaining binding at 1 µM [1] | remaining binding at 1 µM [2] | remaining binding at 1 µM [3] | remaining binding at 1 µM [4] | remaining binding at 1 µM [5] | remaining binding at 1 µM [6] | remaining binding at 1 µM [7] | remaining binding at 1 µM [8, 14] | remaining binding at 1 µM [8, 15] | remaining binding at 1 µM [9] | remaining binding at 1 µM [10] | remaining binding at 1 µM [11] | remaining binding at 1 µM [12] | remaining binding at 1 µM [13]
CNc1nc(Nc2ccc(C(=O)N3CCOCC3)cc2OC)nc2[nH]cc(C#N)c12 [Example 1, 2-((2-methoxy-4-(morpholine-4-carbonyl)phenyl)amino)-4-(methylamino)-7H-pyrrolo[2,3-d]pyrimidine-5-carbonitrile] | 88% | 82% | 73% | 68% | 72% | 81% | 21% | 80% | 66% | 74% | 7.7% | 97% | 85% | 60%
CC1(Nc2nc(Nc3cnn([C@H]4CCN(C5COC5)C[C@@H]4F)c3Cl)nc3[nH]cc(C#N)c23)CC1 [Example 52, 2-((5-chloro-1-((3S,4S)-3-fluoro-1-(oxetane-3-yl)piperidine-4-yl)-1H-pyrazole-4-yl)amino)((1-methylcyclopropyl)amino)-7H-pyrrolo[2,3-d]pyrimidine-5-carbonitrile] | 42% | 97% | 6.5% | 55% | 9.1% | 21% | 0.45% | 0% | 7.2% | 0.35% | 0% | 49% | 0.05% | 30%
CCNc1nc(Nc2ccc(C(=O)N3CCC(N4CCOCC4)CC3)cc2OC)nc2[nH]cc(C(F)(F)F)c12 [Example 104, (4-((4-(ethylamino)-5-(trifluoromethyl)-7H-pyrrolo[2,3-d]pyrimidine-2-yl)amino)-3-methoxyphenyl)(4-morpholinopiperidine-1-yl)methanone] | 100% | 100% | 85% | 100% | 100% | 14% | 7.5% | 100% | 100% | 69% | 12% | 77% | 92% | 100%
